From US20130171105A1, “CANCER THERAPY USING A COMBINATION OF A HSP90 INHIBITORY COMPOUND AND A TOPOISOMERASE II INHIBITOR” (SYNTA PHARMACEUTICALS CORP., priority 2010, published 2013) come the findings set out here.

For one experiment, the target named is T1, topoisomerase II (Homo sapiens, UniProt P11388).
T1 construct: purchased TopoGEN, Inc
As to the kind of experiment: kDNA decatenation assay (Topo II assay). It counts as biochemical. To be noted: kDNA substrate, 37° C. for 30 min, agarose gel. On the set-up: key: + (some inhibition); + (some inhibition) < ++ < +++; ++ < +++ < ++++; ++++ (complete inhibition). The method, then:
The ability of compounds of the formulae (I) or (Ia) to inhibit the activity of topoisomerase II was examined with a kDNA decatenation assay (TopoGEN, Inc. Port Orange, Fla.). Substrate kDNA was mixed with compounds and incubated at 37° C. for 30 min. The reaction was stop by adding ⅕ volume of stop buffer. 20 μl of the reaction was loaded on 1% agarose gel. Image of decatenation of kDNA by compounds was taken by Kodak Image Station 440. Table 1 indicates the ability of compound 1 inhibiting the activity of topoisomerase II.

The test system of experiment [1] is K562 chronic myelogenous leukemia cells. As to the kind of experiment: Cell viability, Alamar Blue assay. The following applies: Homo sapiens, K562, 72 h, read-out: IC50 (cell viability).
Description: Human K562 chronic myelogenous leukemia cells (American Type Culture Collection) were grown in RPMI medium with 2 mM L-glutamine, antibiotics (100 IU/ml penicillin and 100 μg/ml streptomycin) and 10% fetal bovine serum (Sigma Aldrich). Cells were maintained at 37° C., 5% CO2 atmosphere and subcultured at 1×10^6 cells/mL.
Cell viability was measured using the Alamar Blue assay (Invitrogen). In brief, cells were plated in 96-well plates in triplicate at 2000 cells per well and incubated at 37° C., 5% CO2 atmosphere for 24 hr prior to the addition of drug or vehicle (0.3% DMSO) to the culture medium. After 72 hr, 10 μl/well Alamar Blue was added to the wells and incubated for an additional 3 hr at 37° C., 5% CO2 atmosphere. Fluorescence (560Ex/590Em nM) was measured with a SpectraMax microplate reader (Molecular Devices) and the resulting data were used to calculate cell viability, normalized to vehicle control.
After 72 hr exposure to drug, cell viability was measured and results were fit to a four parameter logistic model (XLFit, ID Business Solutions) shown in FIG. 1.

T1 sequence (P11388 whole entry): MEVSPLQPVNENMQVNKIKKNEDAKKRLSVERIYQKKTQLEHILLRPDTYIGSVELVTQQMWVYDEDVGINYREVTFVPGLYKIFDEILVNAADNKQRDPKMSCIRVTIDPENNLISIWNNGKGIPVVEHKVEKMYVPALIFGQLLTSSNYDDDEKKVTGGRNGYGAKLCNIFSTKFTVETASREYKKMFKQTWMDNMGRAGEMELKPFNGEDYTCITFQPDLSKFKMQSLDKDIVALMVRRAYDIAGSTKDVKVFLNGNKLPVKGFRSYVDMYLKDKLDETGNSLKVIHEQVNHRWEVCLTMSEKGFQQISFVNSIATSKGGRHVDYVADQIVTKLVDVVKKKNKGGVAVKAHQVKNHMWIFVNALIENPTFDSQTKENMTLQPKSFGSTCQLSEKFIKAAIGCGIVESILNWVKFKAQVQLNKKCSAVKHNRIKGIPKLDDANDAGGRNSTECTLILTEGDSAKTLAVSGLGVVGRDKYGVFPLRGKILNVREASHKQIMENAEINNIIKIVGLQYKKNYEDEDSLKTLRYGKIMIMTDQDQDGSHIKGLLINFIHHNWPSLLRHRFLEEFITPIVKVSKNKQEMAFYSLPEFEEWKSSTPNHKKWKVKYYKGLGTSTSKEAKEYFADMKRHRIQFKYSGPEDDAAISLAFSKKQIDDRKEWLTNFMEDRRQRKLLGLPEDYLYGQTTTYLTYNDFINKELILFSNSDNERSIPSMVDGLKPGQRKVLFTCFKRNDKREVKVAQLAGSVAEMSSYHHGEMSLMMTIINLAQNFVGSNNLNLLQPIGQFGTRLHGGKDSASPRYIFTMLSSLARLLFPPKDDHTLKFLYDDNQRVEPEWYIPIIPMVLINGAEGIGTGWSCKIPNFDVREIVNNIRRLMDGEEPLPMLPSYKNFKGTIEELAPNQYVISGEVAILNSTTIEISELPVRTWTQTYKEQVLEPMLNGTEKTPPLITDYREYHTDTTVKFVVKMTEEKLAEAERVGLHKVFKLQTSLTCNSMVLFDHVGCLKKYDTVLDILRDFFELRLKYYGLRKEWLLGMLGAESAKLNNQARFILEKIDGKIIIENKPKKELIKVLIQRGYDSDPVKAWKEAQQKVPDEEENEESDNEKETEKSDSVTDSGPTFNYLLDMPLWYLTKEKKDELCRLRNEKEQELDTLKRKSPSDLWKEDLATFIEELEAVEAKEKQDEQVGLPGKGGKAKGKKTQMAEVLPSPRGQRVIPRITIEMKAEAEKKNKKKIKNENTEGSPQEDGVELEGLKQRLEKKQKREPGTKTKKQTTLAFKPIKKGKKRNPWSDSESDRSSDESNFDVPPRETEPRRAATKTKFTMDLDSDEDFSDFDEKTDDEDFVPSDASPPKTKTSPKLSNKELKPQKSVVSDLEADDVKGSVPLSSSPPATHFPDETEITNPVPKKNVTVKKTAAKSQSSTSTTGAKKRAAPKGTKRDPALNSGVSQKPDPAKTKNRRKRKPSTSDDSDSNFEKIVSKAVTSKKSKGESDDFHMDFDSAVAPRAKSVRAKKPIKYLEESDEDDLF

As a reminder, the IC50 is the point on the concentration scale where inhibition reaches its midpoint. In the case of `CC(C)c1cc(-c2nnc(O)n2-c2ccc3c(ccn3C)c2)c(O)cc1O` [Compound 1, 3-(2,4-DIHYDROXY-5- ISOPROPYL-PHENYL)-4-(1- METHYL-INDOL-5-YL)-5- HYDROXY-[1,2,4] TRIAZOLE], the “Topo II assay (effectiveness at inhibition)” value at topoisomerase II is given as “+”. Further, the IC50 in experiment [1] came to 16 nM.

With `COc1cc([C@@H]2c3cc4c(cc3[C@@H](O[C@@H]3O[C@@H]5CO[C@@H](C)O[C@H]5[C@H](O)[C@H]3O)[C@H]3COC(=O)[C@H]23)OCO4)cc(OC)c1O` [etoposide, reference compound], the IC50 in experiment [1] was determined as 21 nM.
